Like-named read-outs stand apart in the source and are kept apart here.
What was measured:
[1] = Microsomal turnover, human liver microsomes; assay type: in vitro ADME; settings: % remaining after 30 min, 1 μM compound
Procedure: Microsomal turnover data was obtained using either human liver microsomes (HLM) or mouse liver microsomes (MLM) obtained from BD Biosciences. The compounds are pre-incubated at 37 °C for 5 minutes with the microsomes and the reaction was initiated by adding an equal volume of NADPH generating solution, also obtained from BD Biosciences. The final compound concentration in the incubation is 1 μM, and the microsomal protein concentration is 0.5 mg/ml for HLM and 0.2 mg/ml for MLM. A sample is taken at t=0 and quenched with 2x volume of ice-cold methanol containing an internal standard reference compound (carbamazepine). […] The samples were centrifuged at 10000 rpm for 10 minutes and the supernatant taken for analysis in triplicate by LC-MS/MS (Agilent Technologies G6410 series, triple quadrupole with MM-ESI ion source) using optimised multiple reaction monitoring (MRM) scans and a standard column gradient on an Acquity UPLC BEH C8 1.7μm column, running acetonitrile and water with 0.05% acetic acid as the mobile phase. […] Verapamil is used as the standard compound for this assay.

[2] = LogD shake flask (octanol/PBS); assay type: physicochemical; settings: measured log D
Procedure: LogD measurements were carried out using the shake flask method. Compound was diluted from 10 mM DMSO stock solution into an eppendorf containing equal amounts of octanol and phosphate buffered saline (PBS) to give a final concentration of 100 μM. The tubes were shaken for 12 hours, centrifuged at 10000 rpm for 10 minutes and samples taken from the octanol and PBS layers. The samples from both layers were analysed in triplicate by LC-MS/MS (Agilent Technologies G6410 series, triple quadrupole with MM-ESI ion source) using optimised multiple reaction monitoring (MRM) scans and a standard column gradient on an Acquity UPLC BEH C8 1.7 μm column, running acetonitrile and water with 0.05% Acetic Acid as the mobile phase. The ratios of areas of the peaks were used to calculate the LogD in accordance with the equation: LogD = Log10(Area-TL/Area BL)

PfCDPK1 = PfCDPK1 (Plasmodium falciparum, UniProt P62344); experiment: PfCDPK1 enzyme inhibition; assay type: biochemical; settings: for LLE: LLE = pIC50 − m Log D
P. falciparum [3] = experiment: P. falciparum parasite growth assay (FACS, hydroethidine); assay type: cell-based, Plasmodium falciparum; settings: in vitro parasite growth, compounds added 24 h post-invasion, cells recovered 48 h later; for EC50: Plasmodium falciparum, read-out: Pf EC50
Procedure: [12] P. falciparum EC50 values were measured using an in vitro model of malaria parasite growth. Compounds were diluted into 2% DMSO and added to parasites 24 h post-invasion in a 96-well plate and incubated under static conditions. Cells were recovered 48 h later and processed for FACS analysis using hydroethidine to stain parasite DNA. Data was acquired using a Guava easyCyte Plus flow cytometer with ExpressPro software. Growth inhibition was calculated using the following formula: % growth inhibition = (1 − [parasitaemia of culture/parasitaemia of control culture]) × 100.

[4] = Microsomal turnover, mouse liver microsomes; assay type: in vitro ADME; settings: % remaining after 30 min, 1 μM compound
Procedure: Microsomal turnover data was obtained using either human liver microsomes (HLM) or mouse liver microsomes (MLM) obtained from BD Biosciences. The compounds are pre-incubated at 37 °C for 5 minutes with the microsomes and the reaction was initiated by adding an equal volume of NADPH generating solution, also obtained from BD Biosciences. The final compound concentration in the incubation is 1 μM, and the microsomal protein concentration is 0.5 mg/ml for HLM and 0.2 mg/ml for MLM. A sample is taken at t=0 and quenched with 2x volume of ice-cold methanol containing an internal standard reference compound (carbamazepine). The reaction is agitated at 37 °C for 40 minutes (HLM) and 30 minutes (MLM) when a further sample was taken and quenched in an identical fashion. The samples were centrifuged at 10000 rpm for 10 minutes and the supernatant taken for analysis in triplicate by LC-MS/MS (Agilent Technologies G6410 series, triple quadrupole with MM-ESI ion source) using optimised multiple reaction monitoring (MRM) scans and a standard column gradient on an Acquity UPLC BEH C8 1.7μm column, running acetonitrile and water with 0.05% acetic acid as the mobile phase. The % turnover is obtained by calculating the percentage difference of the peak areas, normalised to the internal standard, at t=0 and t=40 (for human) or t=30 (for mouse). Verapamil is used as the standard compound for this assay.

[5] = target: 73-member human kinase panel; experiment: Kinase selectivity profiling against human kinase panel; assay type: biochemical; settings: 73-member human kinase panel at 1 μM concentration; green <50%, orange 50–80%, red >80% inhibition in Figure 2
Source text: They also display key ADME properties which serve to complement analogues such as 2, where a 6-membered aryl or heteroaryl ring linker had been used (Table 5). As expected, the pyrazole linker has contributed to lowering log D in these new analogues, and perhaps more importantly has promoted a significant increase in ligand lipophilic efficiency (LLE)[22] as compared to compounds such as 2. This parameter is well-known to offer a useful guide to potency and lipophilicity during the progression of chemical series from hits towards leads. In addition, we observed promising kinase selectivity profiles for key examples on screening against a human kinase panel at 1 μM concentration,[23] as shown in Figure 2. The aryl pyrazoles described here thus represent a useful additional possibility for progressing towards alternative early lead compounds with good development characteristics.
[23] Kinase selectivity profiling was carried out by the National Centre for Protein Kinase Profiling at the MRC Protein Phosphorylation Unit (University of Dundee, UK).

[6] = PAMPA passive permeability; assay type: in vitro ADME; settings: 5 hours at room temperature
Procedure: PAMPA assays were carried out using a 96 well BD Biosciences pre-coated PAMPA plate with 0.4 μm polyvinylidene fluoride filter plate, precoated with structured layers of phospholipids. […] The compound solution was placed in the lower ‘Donor’ well of the plate and the upper ‘Acceptor’ well of the plate was filled with PBS:DMSO 98:2 buffer containing no compound following which the plates was assembled then incubated for 5 hours at room temperature. After incubation the Donor and Acceptor wells were sampled into flat UV bottomed plates and a six fold 1:2 dilution series created for each compound starting at the appropriate top concentration for each compound. The UV absorbance for these solutions was read across 230-400 nm at 1 nm intervals using a TECAN Safire II plate reader and a suitable UV wavelength chosen around the UV maximum of each compound. This was used to calculate the concentration in the Donor and Acceptor wells for each compound. The compound permeability Papp (nm s^-1) and % mass retention was then calculated for each compound in accordance with the following equations:
Ceq = [CD(t)* VD+ CA(t)*VA]/(VD+VA)
% mass retention = 1 – [CD(t)*VD + CA(t)*VA]/(C0*VD)]
A = Filter Area, VD = Donor Well Volume, VA = Acceptor Well Volume, t = incubation time (secs), CA(t) = Acceptor concentration at time t, CD(t) = Donor concentration at time t, C0 = Initial Donor concentration
No result was reported for compounds where % mass retention exceeded 50%.

P. falciparum [7] = system: P. falciparum; set-up: method as in PMID 23570789; settings: reference compound 2; read-out: Pf EC50; cited from earlier work
[8] = set-up: method as in PMID 23570789; settings: % remaining after 30 min incubation with human liver microsomes; cited from earlier work
[9] = set-up: method as in PMID 23570789; settings: % remaining after 30 min incubation with mouse liver microsomes; cited from earlier work

Chain of PfCDPK1 (P62344 whole entry): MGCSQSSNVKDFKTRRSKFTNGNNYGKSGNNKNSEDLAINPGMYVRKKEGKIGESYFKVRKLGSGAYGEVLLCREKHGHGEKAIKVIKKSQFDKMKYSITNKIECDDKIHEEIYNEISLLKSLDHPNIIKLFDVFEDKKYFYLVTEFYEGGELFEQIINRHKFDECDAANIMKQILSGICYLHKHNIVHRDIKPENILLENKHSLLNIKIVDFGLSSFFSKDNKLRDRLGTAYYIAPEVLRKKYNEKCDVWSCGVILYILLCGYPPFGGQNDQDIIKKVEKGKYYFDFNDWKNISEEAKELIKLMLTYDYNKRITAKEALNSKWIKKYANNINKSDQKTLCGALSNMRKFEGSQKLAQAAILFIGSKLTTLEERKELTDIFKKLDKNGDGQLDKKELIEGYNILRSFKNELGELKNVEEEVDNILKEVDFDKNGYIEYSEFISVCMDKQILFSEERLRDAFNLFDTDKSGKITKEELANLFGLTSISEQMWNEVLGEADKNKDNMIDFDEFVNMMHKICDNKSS

Structure (SMILES)	HLM % rem [1] [%]	logD at 12 h, 100 µM [2]	IC50 (PfCDPK1) [nM]	EC50 (P. falciparum [3]) [nM]	MLM % rem [4] [%]	LLE (PfCDPK1)	LE (ligand efficiency) (PfCDPK1; from PfCDPK1 potency)	Kinases inhibited [5]	Pf EC50 (P. falciparum [3])	Papp at 5 h, up to 200 µM [6] [×10⁻⁶ cm/s]	EC50 (P. falciparum [7]) [nM]	HLM % rem [8] [%]	MLM % rem [9] [%]
CN1CCCC(c2ccn3ncc(-c4cnn(-c5ccc(F)cc5)c4)c3n2)C1 (centres unmarked) [Compound 35]	55	2.5	378	3540	33	–	–	–	–	–	–	–	–
c1ccc(-n2cc(-c3cnc4ccc(NC5CCNCC5)nn34)cn2)cc1 [Compound 12]	81	1.8	43	985	74	4.5	0.37	PRK2, PKD1, MSK1, MNK1, SmMLCK, CHK1, CHK2, Aurora B, NUAK1, PIM1, GCK, MINK1, MLK1, MLK3, IRAK4, SRC, LCK, YES1, EPH-A2, FGF-R1, HER4, VEG-FR	sub-micromolar	2.3	–	–	–
Clc1ccc2ncc(Br)n2n1 [Compound 27]	–	–	–	–	–	–	–	RSK1, PRK2, CHK1, MELK, NUAK 1, PIM1, MST2, GCK, MINK1, MLK1, MLK3, IRAK4, SRC, LCK, CSK, YES1, BTK, EPH-A2, EPH-B3, HER4, VEG-FR	–	–	–	–	–
N[C@H]1CC[C@H](Nc2ccc3ncc(-c4cnn(-c5ccc(F)cc5)c4)n3n2)CC1 [Compound 29]	80	1.9	56	262	84	5.3	–	–	–	4.3	–	–	–
CN1CCC(Oc2ccc3ncc(-c4cnn(-c5ccc(F)cc5)c4)n3n2)CC1 [Compound 31]	61	2.6	184	–	38	–	–	–	–	21.4	–	–	–
CN1CCC(Nc2ccc3ncc(-c4cnn(-c5ccccc5F)c4)n3n2)CC1 [Compound 16]	–	3.4	76	567	–	–	–	–	–	–	–	–	–
Fc1ccc(-n2cc(-c3cnn4ccc(C5CCCNC5)nc34)cn2)cc1 (centres unmarked) [Compound 34]	80	1.4	176	3830	56	–	–	–	–	21.7	–	–	–
CN1CCC(Nc2ccc3ncc(-c4cnn(-c5cccc(C#N)c5)c4)n3n2)CC1 [Compound 37]	70	2.7	189	255	59	–	–	–	–	–	–	–	–
CC(C)CCNc1ccc(-c2cnc3ccc(NC4CCN(C)CC4)nn23)cn1 [Compound 2]	–	–	–	–	–	–	–	–	–	–	400	63	85
Cc1nn(-c2ccccc2)cc1-c1cnc2ccc(NC3CCN(C)CC3)nn12 [Compound 11]	–	–	3610	–	–	–	–	–	–	–	–	–	–
CN1CCC(Nc2ccc3ncc(-c4cnn(-c5cnccn5)c4)n3n2)CC1 [Compound 26]	66	2.2	31	366	51	–	–	–	–	0.05	–	–	–
CN1CCC(Nc2ccc3ncc(-c4cnn(-c5ccc(C#N)cc5)c4)n3n2)CC1 [Compound 36]	79	1.9	854	–	59	–	–	RSK1, ROCK2, PRK2, MNK1, MNK2, SmMLCK, PHK, CHK1, MARK3, BRSK2, MELK, NUAK1, CK1, CK2, DRYK1A, PIM1, PAK4, MST2, GCK, MINK1, MLK1, MLK3, IRAK4, SRC, YES1, BTK, EPH-A2, HER4, VEG-FR	–	–	–	–	–
CN1CCC(Nc2ccc3ncc(-c4cnn(-c5ncc(F)cn5)c4)n3n2)CC1 [Compound 25]	–	2	486	–	–	–	–	–	–	–	–	–	–
Fc1ccc(-n2cc(-c3cnc4ccc(N[C@H]5CC[C@H](N6CCCC6)CC5)nn34)cn2)cc1 [Compound 30]	42	2.8	129	373	66	–	–	–	–	10.4	–	–	–

Source: paper PMC3809513, “Imidazopyridazines as potent inhibitors of Plasmodium falciparum calcium-dependent protein kinase 1 (PfCDPK1): Preparation and evaluation of pyrazole linked analogues^” (Bioorganic & Medicinal Chemistry Letters, 2013)
